# Target: T1, liver carnitine palmitoyl transferase 1 (L-CPT1) (Homo sapiens, UniProt P50416)
# T1 construct: made in house; host or cells: Pichia pastoris strain X-33 (crude cell-free extract)
# T1 sequence (P50416 1-773): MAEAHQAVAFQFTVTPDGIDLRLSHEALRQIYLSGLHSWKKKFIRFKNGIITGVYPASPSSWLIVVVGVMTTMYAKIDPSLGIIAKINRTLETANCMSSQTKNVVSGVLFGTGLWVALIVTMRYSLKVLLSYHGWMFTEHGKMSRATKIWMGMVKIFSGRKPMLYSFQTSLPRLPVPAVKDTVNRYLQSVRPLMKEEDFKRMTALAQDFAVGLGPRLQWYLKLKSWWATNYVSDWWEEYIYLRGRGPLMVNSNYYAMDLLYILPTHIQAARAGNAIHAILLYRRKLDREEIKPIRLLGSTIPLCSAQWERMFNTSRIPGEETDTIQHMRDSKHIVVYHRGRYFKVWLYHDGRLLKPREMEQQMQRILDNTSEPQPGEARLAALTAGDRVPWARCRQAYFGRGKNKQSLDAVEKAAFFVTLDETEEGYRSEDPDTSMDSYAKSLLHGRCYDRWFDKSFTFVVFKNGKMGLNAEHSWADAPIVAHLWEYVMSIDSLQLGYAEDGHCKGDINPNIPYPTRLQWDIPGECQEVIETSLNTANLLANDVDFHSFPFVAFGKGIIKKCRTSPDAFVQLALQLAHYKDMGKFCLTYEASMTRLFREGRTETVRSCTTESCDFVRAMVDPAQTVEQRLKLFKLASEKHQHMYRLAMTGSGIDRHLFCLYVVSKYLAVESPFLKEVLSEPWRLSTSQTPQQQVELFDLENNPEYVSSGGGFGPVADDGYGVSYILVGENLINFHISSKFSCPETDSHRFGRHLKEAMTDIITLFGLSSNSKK
# Experiment: L-CPT1 inhibition, spectrophotometric CPT activity assay with DTNB (Ellman's reagent)
# Assay type: biochemical
# Settings: human liver CPT1 expressed in P. pastoris, cell extracts; carnitine 500 μM, palmitoyl-CoA 80 μM, DTNB 300 μM, pH 7.4
# Protocol: The following tests were carried out in order to determine the activity of the compounds of the present invention. Background information on the performed assays can be found in: Jackson et al., 1999, Biochem. J. 341, 483-489 and Jackson et al., 2000, J. Biol. Chem. 275, 19560-19566.
# Human liver and muscle CPT1 cDNAs and rat CPT2 cDNA were subcloned in pGAPZB or pGAPZA, respectively. These plasmids were used to transform P. pastoris strain X-33 via electroporation after the preparation of electrocompetent cells. High copy number clones were selected where necessary using 0.5 or 1 mg/ml Zeocin. Cultures for activity measurements were induced for 16 h in YPD medium (1% yeast extract, 2% peptone, 2% glucose). Crude cell extracts were prepared by disrupting the cells with glass beads or French Press, depending on fermenter sizes. After centrifugation, the cell-free extracts were resuspended in cell breaking buffer (50 mM Tris, pH7.4, 100 mM KCl, 1 mM EDTA) in the presence of a protease inhibitor cocktail, before aliquoting and freezing at −20° C.
# CPT activity was measured using a spectrophotometric assay using 5,5′-dithio-bis-(2-nitrobenzoic acid) (DTNB) also called Ellman's reagent. The HS-CoA released on the formation of acylcarnitine from carnitine (500 μM) and palmitoyl-CoA (80 μM) reduced DTNB (300 μM) forming 5-mercapto-(2-nitrobenzoic acid) which absorbed at 410 nm with a molar extinction coefficient of 13600 M^−1cm^−1. The assay buffer contained 120 mM KCl, 25 mM Tris, pH 7.4, 1 mM EDTA. This assay was used for the identification of selective inhibitors of the liver CPT1 isoform versus the muscle CPT1 and CPT2 isoforms.
row,SMILES,IC50 [nM]
1,"O=C(COc1ccccc1)N1CCCC[C@@H]1c1nc(-c2ccc3c(c2)OCO3)cs1 [Example 17, 1-[(R)-2-(4-Benzo[1,3]dioxol-5-yl-thiazol-2-yl)-piperidin-1-yl]-2-phenoxy-ethanone]",134
2,"Cc1c(-c2csc([C@H]3CCCCN3C(=O)COc3ccccc3)n2)[nH]c2ccccc12 [Example 19, 1-{(R)-2-[4-(3-Methyl-1H-indol-2-yl)-thiazol-2-yl]-piperidin-1-yl}-2-phenoxy-ethanone]",330
3,"O=C(COc1ccccc1)N1CCCC[C@@H]1c1nc(-c2ccccn2)cs1 [Example 6, 2-Phenoxy-1-[(R)-2-(4-pyridin-2-yl-thiazol-2-yl)-piperidin-1-yl]-ethanone]",19.6
4,"CC(=O)Nc1ccc(-c2nc([C@H]3CCCCN3C(=O)COc3ccccc3)cs2)cc1 [Example 25, N-(4-{4-[(R)-1-(2-Phenoxy-acetyl)-piperidin-2-yl]-thiazol-2-yl}-phenyl)-acetamide]",164
5,"O=C(COc1ccccc1)N1CCCC[C@@H]1c1nc(-c2ccc(F)c(F)c2)cs1 [Example 7, 1-{(R)-2-[4-(3,4-Difluoro-phenyl)-thiazol-2-yl]-piperidin-1-yl}-2-phenoxy-ethanone]",286
6,"O=C1Cc2cc(-c3csc([C@H]4CCCCN4C(=O)COc4ccccc4)n3)ccc2N1 [Example 14, 5-{2-[(R)-1-(2-Phenoxy-acetyl)-piperidin-2-yl]-thiazol-4-yl}-1,3-dihydro-indol-2-one]",65.9
7,"N#Cc1cccc(-c2csc([C@H]3CCCCN3C(=O)COc3ccccc3)n2)c1 [Example 21, 3-{2-[(R)-1-(2-Phenoxy-acetyl)-piperidin-2-yl]-thiazol-4-yl}-benzonitrile]",65

# Next, values leading:
row,IC50 [nM],SMILES
1,100,"Cc1sc([C@H]2CCCCN2C(=O)COc2ccccc2)nc1-c1cccc(C(=O)O)c1 [Example 46, 3-{5-Methyl-2-[(R)-1-(2-phenoxy-acetyl)-piperidin-2-yl]-thiazol-4-yl}-benzoic acid]"
2,88.7,"Cc1ccc(-c2nc([C@H]3CCCCN3C(=O)COc3ccccc3)cs2)cn1 [Example 30, 1-{(R)-2-[2-(6-Methyl-pyridin-3-yl)-thiazol-4-yl]-piperidin-1-yl}-2-phenoxy-ethanone]"
3,37.7,"O=C(O)c1cccc(-c2csc([C@H]3CCCCN3C(=O)COc3ccccc3)n2)n1 [Example 42, 6-{2-[(R)-1-(2-Phenoxy-acetyl)-piperidin-2-yl]-thiazol-4-yl}-pyridine-2-carboxylic acid]"
4,150,"O=C(COc1ccccc1)N1CCCC[C@@H]1c1csc(-c2ccncc2)n1 [Example 32, 2-Phenoxy-1-[(R)-2-(2-pyridin-4-yl-thiazol-4-yl)-piperidin-1-yl]-ethanone]"
5,176,"O=C(COc1ccccc1)N1CCCC[C@@H]1c1csc(-c2ccccn2)n1 [Example 34, 2-Phenoxy-1-[(R)-2-(2-pyridin-2-yl-thiazol-4-yl)-piperidin-1-yl]-ethanone]"
